Assay results reported in patent US20230365618A1, “CRYSTALLINE THIOCHOLESTEROL” (Durect Corporation, priority 2020, published 2023).

Tests used:
[1] = tested on: lipid biosynthesis; cholesterol secretion and degradation; details: shown previously; cited from earlier work
[2] = Relative thermodynamic stability of the forms from crystal density, DSC melt onset and heat of fusion; format: physicochemical; details: suggested by higher crystal density and melt onset (with higher heat of fusion)
Method: A tau lag adjustment is performed with indium, tin, and zinc. […] The adjustment is then verified with octane, phenyl salicylate, indium, tin, and zinc. […] A weighed aluminum pan configured as the sample pan was placed on the […] side of the cell.

[3] = Dynamic vapor sorption/desorption (DVS); format: physicochemical; details: for hygroscopicity: DVS plot

Structure (SMILES)	cholesterol secretion and degradation [1]	lipid biosynthesis [1]	thermodynamic stability relative to another form [2]	weight change during the DVS cycle ([3]; 5% to 95% RH, sorption and desorption, FIG. 6) [%]	hygroscopicity ([3]; FIG. 6)	hygroscopicity ([3]; FIG. 6, listed as Crystalline thiocholesterol Form A)	solid form of material recovered from the DVS experiment (x-ray powder diffraction) ([3]; after DVS cycle 5% to 95% RH)
CC(C)CCC[C@@H](C)[C@H]1CC[C@H]2[C@@H]3CC=C4C[C@@H](S)CC[C@]4(C)[C@H]3CC[C@]12C [Thiocholesterol, (3 S,8S,9S,10R,13R,14S,17R)-17-[(1R)-1,5-dimethylhexyl]-10,13-dimethyl-2,3,4,7,8,9,11,12,14,15,16,17-dodecahydro-1H-cyclopenta[a] phenanthrene-3-thiol]	increases	decreases	–	–	–	–	–
CC(C)CCC[C@@H](C)[C@H]1CC[C@H]2[C@@H]3CC=C4C[C@@H](S)CC[C@]4(C)[C@H]3CC[C@]12C [crystalline thiocholesterol Form A]	–	–	more thermodynamically stable than Crystalline Thiocholesterol Form B	0.25	low hygroscopicity	non-hygroscopic	identified as crystalline thiocholesterol Form A
